Test results published in publication PMC7211202 (Investigational New Drugs, 2019).

Test: Patient incidence of adverse events (CTCAE version 4.0)
Type: in vivo
Conditions: 240-mg dose expansion
Text: Each patient was monitored for 21 days for the occurrence of dose-limiting toxicities (DLTs), defined as febrile neutropenia, neutropenic infection, grade 4 neutropenia lasting >7 days, grade ≥ 3 thrombocytopenia lasting >7 days (solid tumors only), grade 3 thrombocytopenia with grade ≥ 2 bleeding (solid tumors only), grade 3 or 4 thrombocytopenia with grade > 1 bleeding (multiple myeloma only), grade 4 thrombocytopenia (solid tumors only), or grade 4 thrombocytopenia lasting >14 days (multiple myeloma only), or as grade ≥ 3 nausea, vomiting, or diarrhea after support; grade 3 fatigue lasting >7 days; any other grade ≥ 3 adverse event (AE); grade ≥ 3 kidney injury (multiple myeloma only), or treatment-related AEs not returning to grade ≤ 1 (solid tumors only) per Common Terminology Criteria for Adverse Events (CTCAE), version 4.0. The MTD was defined as the maximum dose, at which the probability of a DLT was ≤25% in Part 1A and ≤ 33% in Parts 1B and 1C. Treatment continued until disease progression, intolerable toxicity, or withdrawal of consent.
AEs were recorded for all enrolled patients.

CC(C)[C@@H](CS(=O)(=O)C(C)C)N1C(=O)[C@@](C)(CC(=O)O)C[C@H](c2cccc(Cl)c2)[C@H]1c1ccc(Cl)cc1 [AMG 232]
AE resulting in treatment discontinuation: fatigue: 2 n
AE resulting in treatment discontinuation: vomiting: 4 n
Patients with AEs resulting in treatment discontinuation: 13 (19%) n (%)
Patients with any serious, treatment-related AE (DDLPS (n = 10)): 0 n (%)
Patients with any treatment-emergent AE (DDLPS (n = 10)): 9 (90) n (%)
Patients with any treatment-emergent serious AE (DDLPS (n = 10)): 4 (40) n (%)
Patients with any treatment-related AE (DDLPS (n = 10)): 9 (90) n (%)
Patients with any treatment-related AE, Grade 3 (DDLPS (n = 10)): 0 n (%)
Patients with any treatment-related AE, Grade 4 (DDLPS (n = 10)): 0 n (%)
Patients with any treatment-related AE, Grade 5 (DDLPS (n = 10)): 0 n (%)
Serious, treatment-related AE: Dehydration (grade 3) (DDLPS (n = 10)): 0 n (%)
Serious, treatment-related AE: Diarrhea (grade 3) (DDLPS (n = 10)): 0 n (%)
Serious, treatment-related AE: Hyperamylasemia (grade 3) (DDLPS (n = 10)): 0 n (%)
Serious, treatment-related AE: Hyperlipasemia (grade 3) (DDLPS (n = 10)): 0 n (%)
Serious, treatment-related AE: Nausea (grade 3) (DDLPS (n = 10)): 0 n (%)
Serious, treatment-related AE: Pulmonary embolism (grade 3) (DDLPS (n = 10)): 0 n (%)
Serious, treatment-related AE: Vomiting (grade 3) (DDLPS (n = 10)): 0 n (%)
Treatment-related AE: Anemia (DDLPS (n = 10)): 0 n (%)
Treatment-related AE: Asthenia (DDLPS (n = 10)): 1 (10) n (%)
Treatment-related AE: Decrease appetite (DDLPS (n = 10)): 4 (40) n (%)
Treatment-related AE: Diarrhea (DDLPS (n = 10)): 6 (60) n (%)
Treatment-related AE: Dysgeusia (DDLPS (n = 10)): 1 (10) n (%)
Treatment-related AE: Fatigue (DDLPS (n = 10)): 7 (70) n (%)
Treatment-related AE: Nausea (DDLPS (n = 10)): 8 (80) n (%)
Treatment-related AE: Neutropenia (DDLPS (n = 10)): 0 n (%)
Treatment-related AE: Thrombocytopenia (DDLPS (n = 10)): 1 (10) n (%)
Treatment-related AE: Vomiting (DDLPS (n = 10)): 2 (20) n (%)
Patients with any serious, treatment-related AE (ER + PR+ Breast (n = 8)): 2 (25) n (%)
Patients with any treatment-emergent AE (ER + PR+ Breast (n = 8)): 8 (100) n (%)
Patients with any treatment-emergent serious AE (ER + PR+ Breast (n = 8)): 3 (38) n (%)
Patients with any treatment-related AE (ER + PR+ Breast (n = 8)): 8 (100) n (%)
Patients with any treatment-related AE, Grade 3 (ER + PR+ Breast (n = 8)): 4 (50) n (%)
Patients with any treatment-related AE, Grade 4 (ER + PR+ Breast (n = 8)): 0 n (%)
Patients with any treatment-related AE, Grade 5 (ER + PR+ Breast (n = 8)): 0 n (%)
Serious, treatment-related AE: Dehydration (grade 3) (ER + PR+ Breast (n = 8)): 0 n (%)
Serious, treatment-related AE: Diarrhea (grade 3) (ER + PR+ Breast (n = 8)): 1 (13) n (%)
Serious, treatment-related AE: Hyperamylasemia (grade 3) (ER + PR+ Breast (n = 8)): 0 n (%)
Serious, treatment-related AE: Hyperlipasemia (grade 3) (ER + PR+ Breast (n = 8)): 0 n (%)
Serious, treatment-related AE: Nausea (grade 3) (ER + PR+ Breast (n = 8)): 1 (13) n (%)
Serious, treatment-related AE: Pulmonary embolism (grade 3) (ER + PR+ Breast (n = 8)): 0 n (%)
Serious, treatment-related AE: Vomiting (grade 3) (ER + PR+ Breast (n = 8)): 1 (13) n (%)
Treatment-related AE: Anemia (ER + PR+ Breast (n = 8)): 0 n (%)
Treatment-related AE: Asthenia (ER + PR+ Breast (n = 8)): 1 (13) n (%)
Treatment-related AE: Decrease appetite (ER + PR+ Breast (n = 8)): 5 (63) n (%)
Treatment-related AE: Diarrhea (ER + PR+ Breast (n = 8)): 7 (88) n (%)
Treatment-related AE: Dysgeusia (ER + PR+ Breast (n = 8)): 2 (25) n (%)
Treatment-related AE: Fatigue (ER + PR+ Breast (n = 8)): 3 (38) n (%)
Treatment-related AE: Nausea (ER + PR+ Breast (n = 8)): 6 (75) n (%)
Treatment-related AE: Neutropenia (ER + PR+ Breast (n = 8)): 0 n (%)
Treatment-related AE: Thrombocytopenia (ER + PR+ Breast (n = 8)): 0 n (%)
Treatment-related AE: Vomiting (ER + PR+ Breast (n = 8)): 6 (75) n (%)
Patients with any serious, treatment-related AE (ER + PR–Breast (n = 4)): 0 n (%)
Patients with any treatment-emergent AE (ER + PR–Breast (n = 4)): 4 (100) n (%)
Patients with any treatment-emergent serious AE (ER + PR–Breast (n = 4)): 1 (25) n (%)
Patients with any treatment-related AE (ER + PR–Breast (n = 4)): 4 (100) n (%)
Patients with any treatment-related AE, Grade 3 (ER + PR–Breast (n = 4)): 1 (25) n (%)
Patients with any treatment-related AE, Grade 4 (ER + PR–Breast (n = 4)): 0 n (%)
Patients with any treatment-related AE, Grade 5 (ER + PR–Breast (n = 4)): 0 n (%)
Serious, treatment-related AE: Dehydration (grade 3) (ER + PR–Breast (n = 4)): 0 n (%)
Serious, treatment-related AE: Diarrhea (grade 3) (ER + PR–Breast (n = 4)): 0 n (%)
Serious, treatment-related AE: Hyperamylasemia (grade 3) (ER + PR–Breast (n = 4)): 0 n (%)
Serious, treatment-related AE: Hyperlipasemia (grade 3) (ER + PR–Breast (n = 4)): 0 n (%)
Serious, treatment-related AE: Nausea (grade 3) (ER + PR–Breast (n = 4)): 0 n (%)
Serious, treatment-related AE: Pulmonary embolism (grade 3) (ER + PR–Breast (n = 4)): 0 n (%)
Serious, treatment-related AE: Vomiting (grade 3) (ER + PR–Breast (n = 4)): 0 n (%)
Treatment-related AE: Anemia (ER + PR–Breast (n = 4)): 1 (25) n (%)
Treatment-related AE: Asthenia (ER + PR–Breast (n = 4)): 1 (25) n (%)
Treatment-related AE: Decrease appetite (ER + PR–Breast (n = 4)): 3 (75) n (%)
Treatment-related AE: Diarrhea (ER + PR–Breast (n = 4)): 4 (100) n (%)
Treatment-related AE: Dysgeusia (ER + PR–Breast (n = 4)): 0 n (%)
Treatment-related AE: Fatigue (ER + PR–Breast (n = 4)): 0 n (%)
Treatment-related AE: Nausea (ER + PR–Breast (n = 4)): 3 (75) n (%)
Treatment-related AE: Neutropenia (ER + PR–Breast (n = 4)): 0 n (%)
Treatment-related AE: Thrombocytopenia (ER + PR–Breast (n = 4)): 0 n (%)
Treatment-related AE: Vomiting (ER + PR–Breast (n = 4)): 2 (50) n (%)
Patients with any serious, treatment-related AE (GBM (n = 10)): 1 (10) n (%)
Patients with any treatment-emergent AE (GBM (n = 10)): 10 (100) n (%)
Patients with any treatment-emergent serious AE (GBM (n = 10)): 7 (70) n (%)
Patients with any treatment-related AE (GBM (n = 10)): 10 (100) n (%)
Patients with any treatment-related AE, Grade 3 (GBM (n = 10)): 4 (40) n (%)
Patients with any treatment-related AE, Grade 4 (GBM (n = 10)): 0 n (%)
Patients with any treatment-related AE, Grade 5 (GBM (n = 10)): 0 n (%)
Serious, treatment-related AE: Dehydration (grade 3) (GBM (n = 10)): 0 n (%)
Serious, treatment-related AE: Diarrhea (grade 3) (GBM (n = 10)): 0 n (%)
Serious, treatment-related AE: Hyperamylasemia (grade 3) (GBM (n = 10)): 1 (10) n (%)
Serious, treatment-related AE: Hyperlipasemia (grade 3) (GBM (n = 10)): 1 (10) n (%)
Serious, treatment-related AE: Nausea (grade 3) (GBM (n = 10)): 0 n (%)
Serious, treatment-related AE: Pulmonary embolism (grade 3) (GBM (n = 10)): 0 n (%)
Serious, treatment-related AE: Vomiting (grade 3) (GBM (n = 10)): 0 n (%)
Treatment-related AE: Anemia (GBM (n = 10)): 0 n (%)
Treatment-related AE: Asthenia (GBM (n = 10)): 0 n (%)
Treatment-related AE: Decrease appetite (GBM (n = 10)): 1 (10) n (%)
Treatment-related AE: Diarrhea (GBM (n = 10)): 5 (50) n (%)
Treatment-related AE: Dysgeusia (GBM (n = 10)): 1 (10) n (%)
Treatment-related AE: Fatigue (GBM (n = 10)): 6 (60) n (%)
Treatment-related AE: Nausea (GBM (n = 10)): 4 (40) n (%)
Treatment-related AE: Neutropenia (GBM (n = 10)): 2 (20) n (%)
Treatment-related AE: Thrombocytopenia (GBM (n = 10)): 2 (20) n (%)
Treatment-related AE: Vomiting (GBM (n = 10)): 3 (30) n (%)
Patients with any serious, treatment-related AE (Multiple Myeloma (n = 10)): 2 (20) n (%)
Patients with any treatment-emergent AE (Multiple Myeloma (n = 10)): 10 (100) n (%)
Patients with any treatment-emergent serious AE (Multiple Myeloma (n = 10)): 4 (40) n (%)
Patients with any treatment-related AE (Multiple Myeloma (n = 10)): 10 (100) n (%)
Patients with any treatment-related AE, Grade 3 (Multiple Myeloma (n = 10)): 6 (60) n (%)
Patients with any treatment-related AE, Grade 4 (Multiple Myeloma (n = 10)): 3 (30) n (%)
Patients with any treatment-related AE, Grade 5 (Multiple Myeloma (n = 10)): 0 n (%)
Serious, treatment-related AE: Dehydration (grade 3) (Multiple Myeloma (n = 10)): 0 n (%)
Serious, treatment-related AE: Diarrhea (grade 3) (Multiple Myeloma (n = 10)): 0 n (%)
Serious, treatment-related AE: Hyperamylasemia (grade 3) (Multiple Myeloma (n = 10)): 0 n (%)
Serious, treatment-related AE: Hyperlipasemia (grade 3) (Multiple Myeloma (n = 10)): 0 n (%)
Serious, treatment-related AE: Nausea (grade 3) (Multiple Myeloma (n = 10)): 0 n (%)
Serious, treatment-related AE: Pulmonary embolism (grade 3) (Multiple Myeloma (n = 10)): 0 n (%)
Serious, treatment-related AE: Vomiting (grade 3) (Multiple Myeloma (n = 10)): 2 (20) n (%)
Treatment-related AE: Anemia (Multiple Myeloma (n = 10)): 1 (10) n (%)
Treatment-related AE: Asthenia (Multiple Myeloma (n = 10)): 4 (40) n (%)
Treatment-related AE: Decrease appetite (Multiple Myeloma (n = 10)): 4 (40) n (%)
Treatment-related AE: Diarrhea (Multiple Myeloma (n = 10)): 7 (70) n (%)
Treatment-related AE: Dysgeusia (Multiple Myeloma (n = 10)): 2 (20) n (%)
Treatment-related AE: Fatigue (Multiple Myeloma (n = 10)): 2 (20) n (%)
Treatment-related AE: Nausea (Multiple Myeloma (n = 10)): 4 (40) n (%)
Treatment-related AE: Neutropenia (Multiple Myeloma (n = 10)): 3 (30) n (%)
Treatment-related AE: Thrombocytopenia (Multiple Myeloma (n = 10)): 3 (30) n (%)
Treatment-related AE: Vomiting (Multiple Myeloma (n = 10)): 4 (40) n (%)
Patients with any serious, treatment-related AE (Other Solid (n = 16)): 0 n (%)
Patients with any treatment-emergent AE (Other Solid (n = 16)): 16 (100) n (%)
Patients with any treatment-emergent serious AE (Other Solid (n = 16)): 5 (31) n (%)
Patients with any treatment-related AE (Other Solid (n = 16)): 14 (88) n (%)
Patients with any treatment-related AE, Grade 3 (Other Solid (n = 16)): 4 (25) n (%)
Patients with any treatment-related AE, Grade 4 (Other Solid (n = 16)): 2 (13) n (%)
Patients with any treatment-related AE, Grade 5 (Other Solid (n = 16)): 0 n (%)
Serious, treatment-related AE: Dehydration (grade 3) (Other Solid (n = 16)): 0 n (%)
Serious, treatment-related AE: Diarrhea (grade 3) (Other Solid (n = 16)): 0 n (%)
Serious, treatment-related AE: Hyperamylasemia (grade 3) (Other Solid (n = 16)): 0 n (%)
